Values of other authors in US12357536B2, “Containers with selective dissolved gas content” (BAXTER INTERNATIONAL INC., priority 2021, dated 2025).
Read-outs that look alike come from different tables or passages of the source.

Conditions: cited from earlier work; for Solubility of oxygen: 760 mm Hg, salinity 0.0 ppt

For `O=O` [oxygen], the Solubility of oxygen (3.0 °C) is given as 13.445 ppm, the Solubility of oxygen (3.2 °C) is given as 13.374 ppm and the Solubility of oxygen (3.4 °C) is given as 13.303 ppm. The Solubility of oxygen (3.6 °C) was 13.233 ppm, the Solubility of oxygen (3.8 °C) was 13.163 ppm and the Solubility of oxygen (4.0 °C) was 13.094 ppm. The Solubility of oxygen (4.2 °C) was 13.025 ppm, the Solubility of oxygen (4.4 °C) was 12.957 ppm and the Solubility of oxygen (4.6 °C) was 12.890 ppm. For the same molecule, the Solubility of oxygen (4.8 °C) was 12.823 ppm, the Solubility of oxygen (5.0 °C) was 12.757 ppm and the Solubility of oxygen (5.2 °C) was 12.692 ppm. For the same molecule, the Solubility of oxygen (5.4 °C) was 12.627 ppm, the Solubility of oxygen (5.6 °C) was 12.563 ppm and the Solubility of oxygen (5.8 °C) was 12.499 ppm. For the same molecule, the Solubility of oxygen (6.0 °C) was 12.436 ppm, the Solubility of oxygen (6.2 °C) was 12.373 ppm and the Solubility of oxygen (6.4 °C) was 12.311 ppm. The Solubility of oxygen (6.6 °C) was 12.249 ppm, the Solubility of oxygen (6.8 °C) was 12.188 ppm and the Solubility of oxygen (7.0 °C) was 12.127 ppm. The Solubility of oxygen (7.2 °C) was 12.067 ppm, the Solubility of oxygen (7.4 °C) was 12.008 ppm and the Solubility of oxygen (7.6 °C) was 11.949 ppm. The Solubility of oxygen (7.8 °C) was 11.980 ppm, the Solubility of oxygen (8.0 °C) was 11.832 ppm and the Solubility of oxygen (8.2 °C) was 11.774 ppm. The Solubility of oxygen (8.4 °C) was 11.717 ppm, the Solubility of oxygen (8.6 °C) was 11.661 ppm and the Solubility of oxygen (8.8 °C) was 11.604 ppm. The Solubility of oxygen (9.0 °C) was 11.549 ppm, the Solubility of oxygen (9.2 °C) was 11.493 ppm and the Solubility of oxygen (9.4 °C) was 11.439 ppm. For the same molecule, the Solubility of oxygen (9.6 °C) was 11.384 ppm, the Solubility of oxygen (9.8 °C) was 11.331 ppm and the Solubility of oxygen (10.0 °C) was 11.277 ppm. The Solubility of oxygen (10.2 °C) was 11.224 ppm, the Solubility of oxygen (10.4 °C) was 11.172 ppm and the Solubility of oxygen (10.6 °C) was 11.119 ppm. For the same molecule, the Solubility of oxygen (10.8 °C) was 11.068 ppm, the Solubility of oxygen (11.0 °C) was 11.016 ppm and the Solubility of oxygen (11.2 °C) was 10.995 ppm. The Solubility of oxygen (11.4 °C) was 10.915 ppm, the Solubility of oxygen (11.6 °C) was 10.865 ppm and the Solubility of oxygen (11.8 °C) was 10.815 ppm. For the same molecule, the Solubility of oxygen (12.0 °C) was 10 766 ppm, the Solubility of oxygen (12.2 °C) was 10.717 ppm and the Solubility of oxygen (12.4 °C) was 10.669 ppm. For the same molecule, the Solubility of oxygen (12.6 °C) was 10.620 ppm, the Solubility of oxygen (12.8 °C) was 10.573 ppm and the Solubility of oxygen (13.0 °C) was 10.525 ppm. The Solubility of oxygen (13.2 °C) was 10.478 ppm, the Solubility of oxygen (13.4 °C) was 10.432 ppm and the Solubility of oxygen (13.6 °C) was 10.386 ppm. The Solubility of oxygen (13.8 °C) was 10.340 ppm, the Solubility of oxygen (14.0 °C) was 10.294 ppm and the Solubility of oxygen (14.2 °C) was 10.249 ppm. The Solubility of oxygen (14.4 °C) was 10.204 ppm, the Solubility of oxygen (14.6 °C) was 10.160 ppm and the Solubility of oxygen (14.8 °C) was 10.115 ppm. The Solubility of oxygen (15.0 °C) was 10.072 ppm, the Solubility of oxygen (15.2 °C) was 10.028 ppm and the Solubility of oxygen (15.4 °C) was 9.985 ppm. The Solubility of oxygen (15.6 °C) was 9.942 ppm, the Solubility of oxygen (15.8 °C) was 9.900 ppm and the Solubility of oxygen (16.0 °C) was 9.858 ppm. For the same molecule, the Solubility of oxygen (16.2 °C) was 9.816 ppm, the Solubility of oxygen (16.4 °C) was 9.774 ppm and the Solubility of oxygen (16.6 °C) was 9.733 ppm. The Solubility of oxygen (16.8 °C) was 9.692 ppm, the Solubility of oxygen (17.0 °C) was 9.651 ppm and the Solubility of oxygen (17.2 °C) was 9.611 ppm. For the same molecule, the Solubility of oxygen (17.4 °C) was 9.571 ppm, the Solubility of oxygen (17.6 °C) was 9.531 ppm and the Solubility of oxygen (17.8 °C) was 9.492 ppm. The Solubility of oxygen (18.0 °C) was 9.453 ppm, the Solubility of oxygen (18.2 °C) was 9.414 ppm and the Solubility of oxygen (18.4 °C) was 9.375 ppm. The Solubility of oxygen (18.6 °C) was 9.337 ppm, the Solubility of oxygen (18.8 °C) was 9.299 ppm and the Solubility of oxygen (19.0 °C) was 9.261 ppm. The Solubility of oxygen (19.2 °C) was 9.224 ppm, the Solubility of oxygen (19.4 °C) was 9.187 ppm and the Solubility of oxygen (19.6 °C) was 9.150 ppm. For the same molecule, the Solubility of oxygen (19.8 °C) was 9.113 ppm, the Solubility of oxygen (20.0 °C) was 9.077 ppm and the Solubility of oxygen (20.2 °C) was 9.040 ppm. The Solubility of oxygen (20.4 °C) was 9.004 ppm, the Solubility of oxygen (20.6 °C) was 8.969 ppm and the Solubility of oxygen (20.8 °C) was 8.933 ppm. For the same molecule, the Solubility of oxygen (21.0 °C) was 8.989 ppm, the Solubility of oxygen (21.2 °C) was 8.863 ppm and the Solubility of oxygen (21.4 °C) was 8.829 ppm. The Solubility of oxygen (21.6 °C) was 8.794 ppm, the Solubility of oxygen (21.8 °C) was 8.760 ppm and the Solubility of oxygen (22.0 °C) was 8.726 ppm. The Solubility of oxygen (22.2 °C) was 8.693 ppm, the Solubility of oxygen (22.4 °C) was 8.659 ppm and the Solubility of oxygen (22.6 °C) was 8.626 ppm. The Solubility of oxygen (22.8 °C) was 8.583 ppm and the “DO concentration of a solution saturated with oxygen” value (about room temperature (approx.) 21° C) was “about 8 ppm”.
